This is an account of results in US20240150290A1, “HETEROCYCLIC P2Y14 RECEPTOR ANTAGONISTS” (priority 2021, published 2024).

Where two headings read alike, the source gives them in different places. Marks after values point to notes of the source that are not given here. Some results are limits rather than exact numbers.

Series [1] has as its system PLE. As to the kind of experiment: Esterase cleavage of prodrugs in the presence of PLE. Type of series: in vitro ADME. The conditions noted are these: 37° C.
In series [2] the test system is allergen-induced airway inflammation. As to the kind of experiment: Ovalbumin/Aspergillus mouse asthma model (BALF leukocytes). Conditions: 20 μmol/kg.
Series [3] concerns the target T1, mP2Y14R (Mus musculus, UniProt Q9ESG6).
T1 sequence (Q9ESG6 1-338): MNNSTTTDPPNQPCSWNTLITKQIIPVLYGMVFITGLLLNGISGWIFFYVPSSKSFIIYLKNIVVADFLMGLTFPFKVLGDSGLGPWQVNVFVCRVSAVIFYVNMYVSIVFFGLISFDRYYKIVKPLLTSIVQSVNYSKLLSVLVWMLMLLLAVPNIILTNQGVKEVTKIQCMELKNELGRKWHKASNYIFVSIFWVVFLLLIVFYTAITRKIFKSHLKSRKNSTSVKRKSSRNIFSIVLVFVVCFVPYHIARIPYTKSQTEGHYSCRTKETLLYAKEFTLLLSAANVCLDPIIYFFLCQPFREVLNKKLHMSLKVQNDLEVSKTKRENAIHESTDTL
Set-up: expressed in transfected cells. The conditions noted are these: Table 2; data from Jung et al. and Mufti et al.; cited from earlier work.

For series [4] the following is noted: human; Table 7; Jung et al. 2020; cited from earlier work.
The conditions of series [5]: mouse; Table 7; Jung et al. 2020; cited from earlier work.
The conditions of series [6]: mouse; Table 7; Jung et al. 2020; cited from earlier work. This is another data set of the same source.
For series [7], the target named is T2, hP2Y14R (Homo sapiens, UniProt Q15391).
T2 construct: expressed in transfected cells; host or cells: CHO cells
T2 sequence (Q15391 1-338): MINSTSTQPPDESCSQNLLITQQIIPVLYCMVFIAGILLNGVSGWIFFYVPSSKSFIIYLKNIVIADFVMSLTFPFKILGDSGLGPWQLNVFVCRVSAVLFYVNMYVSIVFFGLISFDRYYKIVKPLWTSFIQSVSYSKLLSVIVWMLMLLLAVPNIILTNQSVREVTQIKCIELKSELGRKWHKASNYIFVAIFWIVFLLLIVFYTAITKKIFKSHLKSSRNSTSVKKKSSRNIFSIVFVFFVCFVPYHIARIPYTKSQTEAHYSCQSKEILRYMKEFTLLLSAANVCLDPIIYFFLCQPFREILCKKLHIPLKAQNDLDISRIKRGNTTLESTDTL
Conditions: Table 2; data from Jung et al. and Mufti et al.; cited from earlier work.

For series [8] the following is noted: Table 7, Jung et al. 2020, cited from earlier work.
The conditions of series [9]: human; Table 7; Jung et al. 2020; cited from earlier work. The source holds these as a separate data set.
Series [10] in a line: Aqueous solubility, pION method.
In series [11] the target is T2, hP2Y14R. The series is described as follows: Inhibition of fluorescent antagonist binding in whole hP2Y14R-expressing CHO cells (flow cytometry).
A short description of series [12]: HPLC-based lipophilicity (Log D7.4).
Series [13] in a line: Plasma protein binding, human. Type of series: in vitro ADME.
Series [14] addresses CYP2C19 (Homo sapiens, UniProt P33261). The series is described as follows: CYP2C19 inhibition. The format is in vitro ADME. Conditions: Table 7.
The nature of series [15]: Plasma stability, mouse. Conditions: Table 7.
Series [16] is described as follows: Microsomal stability, rat. Type of series: in vitro ADME. Conditions: Table 7.
In series [17] the target is hERG (Homo sapiens, UniProt Q12809). As to the kind of experiment: hERG inhibition, fluorescent method. The format is binding. The conditions noted are these: Table 7.
Series [18] is described as follows: Microsomal stability, mouse. The format is in vitro ADME. Conditions: Table 7.
For series [19], the target named is T3, CYP1A2 (Homo sapiens, UniProt P05177).
T3 sequence (P05177 1-516): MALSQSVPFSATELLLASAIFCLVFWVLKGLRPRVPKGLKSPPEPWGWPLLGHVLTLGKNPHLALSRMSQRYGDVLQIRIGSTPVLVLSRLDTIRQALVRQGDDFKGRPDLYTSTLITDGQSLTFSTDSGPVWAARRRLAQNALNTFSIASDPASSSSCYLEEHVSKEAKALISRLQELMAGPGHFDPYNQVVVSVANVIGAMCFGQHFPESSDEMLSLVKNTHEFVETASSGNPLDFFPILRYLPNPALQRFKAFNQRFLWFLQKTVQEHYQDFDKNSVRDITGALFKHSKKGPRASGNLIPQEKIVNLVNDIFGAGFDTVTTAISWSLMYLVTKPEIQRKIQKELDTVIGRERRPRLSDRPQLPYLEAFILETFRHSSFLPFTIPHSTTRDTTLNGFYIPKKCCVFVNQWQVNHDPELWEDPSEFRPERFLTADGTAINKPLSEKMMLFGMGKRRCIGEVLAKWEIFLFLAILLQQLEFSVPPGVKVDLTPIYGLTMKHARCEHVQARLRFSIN
As to the kind of experiment: CYP1A2 inhibition. The format is in vitro ADME. Conditions: Table 7.

Series [20] in a line: In vivo half-life by administration mode (Table 7).
Series [21] can be described thus: Stability in simulated intestinal fluid. The conditions noted are these: Table 7.
Series [22] has as its target T1, mP2Y14R. As to the kind of experiment: cell-based. The conditions noted are these: read-out: mP2Y14R, IC50; Table 6; whole mP2Y14R-HEK cells, 200 nM of 3, mean ± SEM, n = 3-6. The source says: Desirably, receptor affinity is maintained across species, facilitating performance in in vivo preclinical testing in small animals, with the mouse being the most commonly used species in initial evaluation.

In series [23] the target is CYP2C9 (Homo sapiens, UniProt P11712). As to the kind of experiment: CYP2C9 inhibition.
A short description of series [24]: Stability in simulated gastric fluid. Conditions: Table 7.
The nature of series [25]: Plasma protein binding, rat. The format is in vitro ADME.
The target in series [26] is CYP2D6 (Homo sapiens, UniProt P10635). As to the kind of experiment: CYP2D6 inhibition. The format is in vitro ADME. Conditions: Table 7.
The nature of series [27]: Plasma stability, rat. Conditions: Table 7.
Series [28] is described as follows: Microsomal stability, human.
Series [29] is described as follows: Plasma protein binding, mouse. Type of series: in vitro ADME.
In series [30] the target is CYP3A4 (Homo sapiens, UniProt P08684). The series is described as follows: CYP3A4 inhibition. Conditions: Table 7. Type of series: in vitro ADME.
In series [31] the target is hERG ion channel (Homo sapiens, UniProt Q12809). The series is described as follows: hERG ion channel block, patch clamp assay. (In general: The hERG channel carries a current that helps repolarise heart muscle cells.)
In series [32] the test system is CCI-induced mechano-allodynia. As to the kind of experiment: Chronic constriction injury (CCI) mouse model of neuropathic pain. The conditions noted are these: 10 μmol/kg, i.p.
Setting [33] is: first value of the cell (mode not given; by the column of 4: i.p.).
Setting [34] is: second value of the cell (mode not given; by the column of 4: i.v., 0.5 mg/kg).
Setting [35] is: Table 6, fluorescent hP2Y14R antagonist (3), read-out: hP2Y14R, IC50.

Sequence of hERG (Q12809 whole entry): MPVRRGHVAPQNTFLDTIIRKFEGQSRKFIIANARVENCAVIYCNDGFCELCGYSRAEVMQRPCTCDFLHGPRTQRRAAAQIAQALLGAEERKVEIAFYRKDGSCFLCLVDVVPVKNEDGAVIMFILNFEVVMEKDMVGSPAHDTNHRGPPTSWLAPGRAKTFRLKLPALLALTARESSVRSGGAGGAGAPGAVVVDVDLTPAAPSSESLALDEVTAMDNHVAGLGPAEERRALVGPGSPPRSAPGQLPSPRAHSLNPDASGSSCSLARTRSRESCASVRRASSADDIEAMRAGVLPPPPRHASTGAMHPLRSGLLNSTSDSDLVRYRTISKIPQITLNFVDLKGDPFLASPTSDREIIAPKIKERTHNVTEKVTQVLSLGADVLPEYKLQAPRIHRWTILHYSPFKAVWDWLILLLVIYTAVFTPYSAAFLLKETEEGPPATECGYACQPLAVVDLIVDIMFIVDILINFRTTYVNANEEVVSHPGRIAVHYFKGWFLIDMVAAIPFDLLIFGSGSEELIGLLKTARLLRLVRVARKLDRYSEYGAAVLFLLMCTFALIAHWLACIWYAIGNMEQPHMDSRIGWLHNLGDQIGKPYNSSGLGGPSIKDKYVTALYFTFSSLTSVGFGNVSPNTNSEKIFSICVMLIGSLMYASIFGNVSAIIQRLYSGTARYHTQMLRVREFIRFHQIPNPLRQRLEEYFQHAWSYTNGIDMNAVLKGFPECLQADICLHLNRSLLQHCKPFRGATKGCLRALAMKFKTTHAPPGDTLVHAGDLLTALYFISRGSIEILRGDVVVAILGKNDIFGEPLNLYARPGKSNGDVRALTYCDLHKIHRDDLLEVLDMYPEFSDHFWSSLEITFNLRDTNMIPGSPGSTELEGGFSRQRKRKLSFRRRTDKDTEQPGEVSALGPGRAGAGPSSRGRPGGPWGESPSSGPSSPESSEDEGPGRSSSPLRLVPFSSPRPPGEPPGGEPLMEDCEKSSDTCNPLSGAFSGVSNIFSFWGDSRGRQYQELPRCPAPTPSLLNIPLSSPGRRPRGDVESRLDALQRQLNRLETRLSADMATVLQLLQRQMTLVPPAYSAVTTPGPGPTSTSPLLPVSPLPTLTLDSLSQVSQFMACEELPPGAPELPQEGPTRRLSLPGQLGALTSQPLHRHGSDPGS
Sequence of CYP2C9 (P11712 whole entry): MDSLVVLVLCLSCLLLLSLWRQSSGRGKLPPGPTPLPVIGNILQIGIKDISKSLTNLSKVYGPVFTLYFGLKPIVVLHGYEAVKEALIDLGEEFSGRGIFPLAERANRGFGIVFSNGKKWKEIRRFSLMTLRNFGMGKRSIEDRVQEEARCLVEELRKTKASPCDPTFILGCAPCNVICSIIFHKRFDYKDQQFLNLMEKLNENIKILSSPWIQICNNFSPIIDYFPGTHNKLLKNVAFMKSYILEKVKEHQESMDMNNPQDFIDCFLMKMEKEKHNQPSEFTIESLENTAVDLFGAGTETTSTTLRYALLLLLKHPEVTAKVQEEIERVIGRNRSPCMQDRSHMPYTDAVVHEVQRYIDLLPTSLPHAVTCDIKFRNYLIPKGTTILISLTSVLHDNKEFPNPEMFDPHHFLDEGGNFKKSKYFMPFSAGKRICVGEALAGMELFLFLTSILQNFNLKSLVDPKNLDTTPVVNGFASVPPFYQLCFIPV
Sequence of CYP2C19 (P33261 whole entry): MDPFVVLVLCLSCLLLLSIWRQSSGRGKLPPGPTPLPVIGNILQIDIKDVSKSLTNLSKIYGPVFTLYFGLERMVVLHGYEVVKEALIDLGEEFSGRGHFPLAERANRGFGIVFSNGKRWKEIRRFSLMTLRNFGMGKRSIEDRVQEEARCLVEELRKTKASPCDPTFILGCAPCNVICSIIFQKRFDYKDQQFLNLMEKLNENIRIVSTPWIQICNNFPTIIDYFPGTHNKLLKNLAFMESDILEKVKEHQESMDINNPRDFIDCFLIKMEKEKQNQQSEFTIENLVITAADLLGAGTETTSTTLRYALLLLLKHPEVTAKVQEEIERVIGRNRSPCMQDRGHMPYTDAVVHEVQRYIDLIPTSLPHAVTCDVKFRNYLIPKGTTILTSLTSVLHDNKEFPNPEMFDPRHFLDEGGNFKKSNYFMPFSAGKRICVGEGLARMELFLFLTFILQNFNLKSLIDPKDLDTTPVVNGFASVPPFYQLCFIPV
Sequence of CYP3A4 (P08684 whole entry): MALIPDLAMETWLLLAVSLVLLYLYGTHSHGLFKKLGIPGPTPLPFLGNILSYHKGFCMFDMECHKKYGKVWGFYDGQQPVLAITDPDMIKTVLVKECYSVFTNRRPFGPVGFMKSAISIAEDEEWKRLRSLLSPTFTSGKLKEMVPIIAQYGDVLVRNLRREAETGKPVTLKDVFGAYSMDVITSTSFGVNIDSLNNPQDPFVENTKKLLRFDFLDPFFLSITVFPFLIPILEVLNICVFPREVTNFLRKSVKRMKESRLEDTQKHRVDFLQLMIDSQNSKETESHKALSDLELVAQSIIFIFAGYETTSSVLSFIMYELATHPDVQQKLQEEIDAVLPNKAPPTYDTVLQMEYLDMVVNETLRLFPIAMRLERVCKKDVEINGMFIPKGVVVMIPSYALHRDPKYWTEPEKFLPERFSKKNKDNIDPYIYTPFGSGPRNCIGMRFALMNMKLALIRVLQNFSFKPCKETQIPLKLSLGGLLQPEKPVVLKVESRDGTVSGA
Sequence of CYP2D6 (P10635 whole entry): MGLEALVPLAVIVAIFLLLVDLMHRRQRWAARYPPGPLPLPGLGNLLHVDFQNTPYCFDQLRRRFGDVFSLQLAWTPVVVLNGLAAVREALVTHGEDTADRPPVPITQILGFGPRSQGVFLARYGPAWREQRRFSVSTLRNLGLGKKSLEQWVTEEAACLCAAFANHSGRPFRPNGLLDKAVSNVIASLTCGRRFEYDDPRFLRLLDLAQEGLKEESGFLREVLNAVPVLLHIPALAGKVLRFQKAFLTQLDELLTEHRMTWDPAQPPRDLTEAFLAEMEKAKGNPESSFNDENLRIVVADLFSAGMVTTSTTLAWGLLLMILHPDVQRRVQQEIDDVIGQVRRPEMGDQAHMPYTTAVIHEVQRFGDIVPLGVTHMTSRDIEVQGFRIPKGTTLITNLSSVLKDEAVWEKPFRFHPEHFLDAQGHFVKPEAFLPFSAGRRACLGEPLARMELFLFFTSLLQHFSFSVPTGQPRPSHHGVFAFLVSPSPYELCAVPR
Sequence of hERG ion channel (Q12809 whole entry): as the sequence (Q12809 whole entry) above

Consider `CC(=O)N1CCC(c2ccc(-c3cc(C(=O)OCC(=O)N(C)C)cc4cc(-c5ccc(C(F)(F)F)cc5)ccc34)cc2)CC1` [Compound 37c, 2-(Dimethylamino)-2-oxoethyl 4-(4-(1-acetylpiperidin-4-yl)phenyl)-7-(4-(trifluoromethyl)phenyl)-2-naphthoate], for which the “Percent cleavage at 72 h” value in series [1] (pH 7.3, PLE, 72 h) came out at 27.2 ± 0.3%. Further, in series [2] (i.p. prior to allergen challenge, two days post-challenge), the “eosinophil counts in the BALF” value is recorded as “significantly reduced eosinophils to a greater extent than the parent antagonists”.
In general, IC50 refers to the midpoint of a concentration-inhibition curve. For the molecule `O=C(O)c1cc(-c2ccc(C34CCN(CC3)CC4)cc2)c2ccc(-c3ccc(C(F)(F)F)cc3)cc2c1` [Compound 4], the IC50 was 0.384 ± 0.088 µM in series [3]; 0.169 ± 0.042 µM in series [7]; 0.02 ± 0.0044 µM in [11] (Example 5 table, whole cell fluorescent binding assay, read-out: IC50); 0.02 ± 0.0044 µM in series [11] (Table 2, whole hP2Y14R-CHO cells, 20 nM fluorescent antagonist 3, mean+SEM, n = 3-6, read-out: IC50). For the same molecule, the figures for the “Microsomal stability (t1/2, min)” value in series [4] and in series [6] were 8 >240 (h) min and 67.2 min, respectively. For the same molecule, the “Plasma stability (% remaining at 120 min)” value in series [5] was 100 (m) %; in series [9], 100%. In addition, the “aqueous solubility (pH 4.0, μg/mL)” value in series [8] (pH 4.0) was 14.3 ± 0.5 μg/mL. In series [8] (pH 7.4), the “aqueous solubility (pH 7.4, μg/mL)” value is given as 0.44 ± 0.06 μg/mL. Further, the “Solubility (ug/mL) pH 4” value in [10] was 1.50 ± 0.04 ug/mL. Further, the “Solubility (ug/mL) pH 7.4” value in [10] stood at 0.55 ± 0.02 ug/mL. In addition, in series [12] (calculated from retention factor difference between ligands and 1 (k = 3.41)), the “Log D7.4” value was 4.18 ± 0.85^f.
Turning to `CN(C)C(=O)COC(=O)c1cc(-c2ccc(C3CCNCC3)cc2)cc(-n2cc(-c3ccc(C(F)(F)F)cc3)nn2)c1` [Compound 37a, 2-(Dimethylamino)-2-oxoethyl 4′-(piperidin-4-yl)-5-(4-(4-(trifluoromethyl)phenyl)-1H-1,2,3-triazol-1-yl)-[1,1′-biphenyl]-3-carboxylate], in series [1] (pH 7.3, aqueous medium, PLE), the “t1/2 (min, mean ± SEM) for esterase cleavage” value is recorded as “most rapidly cleaved”. Besides, in [2] (i.p.), the “lymphocyte count in the BALF” value is listed as “trended higher than in vehicle control”.
In general, half-life refers to the time needed for the level to fall by half in the phase considered. `O=C(O)c1cc(-c2ccc([C@@H]3C[C@@H]4C[C@H]3NC4=O)cc2)c2ccc(-c3ccc(C(F)(F)F)cc3)cc2c1` [Compound 121, 4-(4-((1R,4R,6S)-3-Oxo-2-azabicyclo[2.2.1]heptan-6-yl)phenyl)-7-(4-(trifluoromethyl)phenyl)-2-naphthoic acid]: the “Human, % bound (±SD)” value in series [13] was 98.89 ± 0.50%. Further, the IC50 was over 30 µM in series [14]; over 30 µM in series [17]; over 30 µM in series [19]; 0.0429 ± 0.007 µM in series [22]; over 30 µM in series [23]; 0.0373 ± 0.006 µM in series [11] (setting [35]). Further, the IC50 in [26] and in series [30] was over 30 µM in each case. In addition, the “Plasma stability (% remaining at 120 min)” value is reported as 74.1% in series [15] and 74.7% in series [27]. Further, the “Microsomal stability (t1/2, min)” value in series [16] is listed as 89.4 min; in series [18], over 1000 min. Moreover, the “t1/2 (h), administration mode” value is on record as 4.59 h in series [20] (setting [33]) and 2.11 h in [20] (setting [34]). Also, in series [21], the “Simulated intestinal fluid (% remaining at 120 min)” value is reported as 100%. Moreover, the “Simulated gastric fluid (% remaining at 120 min)” value in [24] is 59.3%. The “Rat, % bound (±SD)” value in series [25] is listed as 96.18 ± 0.32%. Also, the half-life in series [28] (liver microsomes) was 14.2 h. Also, the “Mouse, % bound (±SD)” value in [29] was 99.74 ± 0.04%.
As usually defined, the chromatographic logD is a lipophilicity value derived from retention on a column. Turning to `O=C(O)c1cc(-c2ccc([C@H]3C[C@H]4C[C@@H]3CN4)cc2)c2ccc(-c3ccc(C(F)(F)F)cc3)cc2c1` [Compound 114, 4-(4-((1S,4S,5S)-2-Azabicyclo[2.2.1]heptan-5-yl)phenyl)-7-(4-(trifluoromethyl)phenyl)-2-naphthoic acid], the “Human, % bound (±SD)” value in [13] was found to be 87.98 ± 10.29%. For the same molecule, the IC50 was over 30 µM in series [14]; over 30 µM in series [31]; over 30 µM in [17]; over 30 µM in series [19]; 0.0339 ± 0.0046 µM in [22]; over 30 µM in series [23]. The IC50 in [11] (setting [35]) was 0.00311 ± 0.00062 µM; in [26], over 30 µM; in series [30] it was over 30 µM. Besides, the “Plasma stability (% remaining at 120 min)” value in series [15] is 100%; in series [27] it was 82.8%. Besides, the “Microsomal stability (t1/2, min)” value is recorded as 91.0 min in series [16], 243 min in series [18] and 280 (h) min in series [28] (Table 7). Moreover, the side effects entry in series [32] is “No obvious side effects were observed”. In [32] (day 7 post-injury), the “reversal of mechano-allodynia (figure legend)” value is given as “reversed the established mechano-allodynia”. Further, the “t1/2 (h), administration mode” value in [20] (setting [33]) stood at 8.94 h; in series [20] (setting [34]), 7.24 h. Also, the “Simulated intestinal fluid (% remaining at 120 min)” value in [21] is reported as 99.1%. Besides, the “Simulated gastric fluid (% remaining at 120 min)” value in [24] (aqueous acid stability determined by NMR) is recorded as 100^e %. Also, in series [25], the “Rat, % bound (±SD)” value came out at 99.79 ± 0.02%. In addition, in [10], the “Solubility (ug/mL) pH 4” value was determined as 1.22 ± 0.05 ug/mL. The “Solubility (ug/mL) pH 7.4” value in [10] is reported as 0.77 ± 0.21 ug/mL. In addition, in [12] (pH 7.4), the chromatographic logD was 1.92 ± 0.09. The “Mouse, % bound (±SD)” value in series [29] was 99.76 ± 0.03%.
